Measured values: PMC5431342, “Discovery of an enzyme and substrate selective inhibitor of ADAM10 using an exosite-binding glycosylated substrate” (Scientific Reports, 2016)
Read-outs that look alike come from different tables or passages of the source.

What was measured:
ADAM10 = biological target: T1, ADAM10 (Homo sapiens, UniProt O14672); test: ADAM10 kinetic assays, determination of inhibition type and mechanism; format: biochemical
T1 construct: purchased R&D Systems 936-AD
T1 sequence (O14672 214-748): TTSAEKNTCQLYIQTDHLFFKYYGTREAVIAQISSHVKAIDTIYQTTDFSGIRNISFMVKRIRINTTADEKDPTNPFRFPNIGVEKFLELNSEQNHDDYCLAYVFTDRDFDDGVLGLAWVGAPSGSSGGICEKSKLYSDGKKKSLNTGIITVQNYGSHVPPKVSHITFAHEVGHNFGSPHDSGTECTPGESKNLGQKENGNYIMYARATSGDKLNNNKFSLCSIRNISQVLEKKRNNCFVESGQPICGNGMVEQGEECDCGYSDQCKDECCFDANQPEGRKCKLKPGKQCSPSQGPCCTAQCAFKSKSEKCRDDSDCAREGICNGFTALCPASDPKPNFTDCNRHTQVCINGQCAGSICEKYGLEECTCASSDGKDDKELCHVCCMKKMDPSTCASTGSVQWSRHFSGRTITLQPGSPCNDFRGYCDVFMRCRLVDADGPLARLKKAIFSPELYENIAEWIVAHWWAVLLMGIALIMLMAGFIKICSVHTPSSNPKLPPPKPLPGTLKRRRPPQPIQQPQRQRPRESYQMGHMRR
Protocol: Since true affinity of time-dependent inhibitors cannot be determined by steady state approaches, in order to determine the true inhibition modality and true affinity of CID 3117694 we performed kinetic assays with the range of glycosylated substrate (0.5–5 [S]/KM) and inhibitor (1.56–50 µM) concentrations in quadruplicate. Reactions were allowed to run for 6 h. Progress curve data were fitted using a non-linear regression model for time-dependent inhibition (Equation 1) using MatLab software.
First, we performed the ADAM10 reaction with glycosylated substrate in the presence of […] CID 3117694 in kinetic format without pre-incubation. Obtained k obs values were plotted versus [I] to determine whether the inhibitor binding conforms to a 1- or 2-step mechanism (Fig. 4A). […] Future studies will address the exact location of this exosite.
In order to determine true inhibition modality and affinity of CID 3117694, kinetic assays were performed with the range of substrate (0.5–5 [S]/KM) and inhibitor concentrations (1.56–50 µM) in quadruplicate. Reactions were allowed to run for 6 h. Progress curve data were fitted using a non-linear regression model for time-dependent inhibition (Equation 1) using MatLab software. [P]=vst+vi−vs/kobs⁎[1−exp(−kobst)]
Obtained k obs values were plotted versus [I] to determine whether the inhibitor binding conforms to a 1- or 2-step mechanism.
To obtain true potency, Equation 3 was solved for K i and K i ′. Resulting ratio of Ki′/Ki termed α (alpha) was used to determine mechanism of inhibition. In order to confirm the true binding modality, k obs was plotted versus [S]/KM. app^Ki=[S]+KM/KM/Ki+[S]/Ki′

[1] = test system: shedding of CXCL16 in A549 cells; test: CXCL16 shedding inhibition (ELISA); format: cell-based, human
Protocol: A549 cells were seeded in 12-well plates and grown to confluency in DMEM supplemented with 10% FBS and 1% P/S. Subsequently, cells were starved serum-free for 4 h, incubated for 1 h with GI 254023X or CID 3117694 (concentrations as indicated) or DMSO (vehicle, 0.1%) and afterwards stimulated with 10 ng/mL TNF and 10 ng/mL IFN for 24 h or left untreated in the presence of inhibitors or DMSO. Supernatants (500 µL) were harvested and centrifuged for 10 min at 16100 g and 4 °C. […] of CXCL16 were measured using the DuoSet human CXCL16 Elisa Kit (R&D systems, Wiesbaden, Germany). Samples were stored at −80 °C and diluted 2-fold after careful thawing. The standard ranged from 0 to 25,000 pg/mL with a detection limit of 391 pg/mL. For detection of soluble syndecan-4, conditioned media (200 µL) were 2-fold diluted in blotting buffer (0.15 M NaCl buffered to pH 4.5 with 50 mM sodium acetate, and with 0.1% Triton X-100), and applied to cationic polyvinylidene difluoride-based membranes (Hybond-N, Amersham Biosciences, Freiburg, Germany) under vacuum in a dot blot apparatus (Amersham Biosciences). The membranes were blocked for 1 h with PBS-T supplemented with 1% bovine serum albumin and 3% milk powder. Human syndecan-4 was detected by incubating membranes overnight at 4 °C with mouse anti-syndecan-4 mAb (0.6 µg/mL) followed by incubation with POD-coupled goat anti-mouse Ab (27 ng/mL in PBS, Jackson Immunoresearch). Chemiluminescence was recorded and quantified using the luminescent image analyzer LAS3000 substrate after addition of ECL advanced substrate (Amersham Biosciences).

[2] = test system: IL-8-induced migration of primary human neutrophils; test: Neutrophil migration assay; format: cell-based
Protocol: For PBMC or primary human neutrophil chemotaxis assays, transwells with 8 or 5 µm pores were filled with 100 µL of cell suspension (1 × 10^6 cells in 100 µL DMEM + 0.2% BSA). Lower wells were filled with stimulus solution (3 nM CCL2 or 10 µg/mL CXCL8 (IL8) in assay buffer (RPMI + 0.2% BSA). After incubation of PBMCs for 2 h or neutrophils for 45 min, migrated cells were quantified in the lower well. For inhibitor studies, cells were pre-incubated in migration medium for 30 min and subsequently subjected to the migration experiment. Migrated neutrophils or PBMCs were quantified by measurement of endogenous glucuronidase activity as described.

MDA-MB-231 cells = test: Wound closure assay, MDA-MB-231; format: cell-based; conditions: MDA-MB-231, 10 µM
Protocol: (§1) For live-cell analysis of scratch-induced wound closure, 2.5 × 10^4 MDA-MB-231 and A549 cells per well were seeded in collagen G (40 µg/mL) (Biochrom AG, Germany) coated 96-well plates near confluence and allowed to grow overnight in standard medium (DMEM supplemented with 10% FBS and 1% P/S). At confluence, cells were pretreated 2 h with mitomycin (10 µg/mL) (Medac, Germany) to block cell proliferation and washed with standard media. Afterwards, cells were incubated in the presence of inhibitor at the indicated concentrations or DMSO (0.1% vehicle). Subsequently, a defined scratch (wound width between 642–767 µm) was performed in each well using the certified Essen Bioscience automated 96-wound maker^TM (Essen Biosciences, Hertfordshire, UK) for 96 well-plates. The medium was removed and 100 µL standard medium were added to the wells containing either inhibitor or DMSO. The closure of the wounded area was monitored using the IncuCyte ZOOM system by taking images of each well every 2 h over a period of 24 h. The reduction of wound width was determined over time using the IncuCyte ZOOM microscope software 2014A. Data were expressed as percentage of wound closure after 8 h.

A549 cells = test: Wound closure assay, A549; format: cell-based; conditions: A549, 10 µM
Protocol: as §1

- ratio of Ki′/Ki, α (alpha) (ADAM10): 21.7
- Ki (ADAM10; apparent potency at initial velocity, hyperbolic two-step model, read-out: appKi): 1.36 ± 0.2 µM
- Ki (ADAM10; apparent potency at steady-state velocity, read-out: appKi*): 0.33 ± 0.02 µM
- Ki (ADAM10; binding affinity for enzyme-substrate complex, read-out: Ki): 19 µM
- Ki (ADAM10; binding affinity for free enzyme, read-out: Ki): 0.883 µM
- inhibition modality (ADAM10; kobs versus [S]/KM and α): competitive inhibitor
Structure (SMILES): COc1cccc(C(=O)NNC(=O)C(=O)Nc2ccc(C)c(Cl)c2)c1 [CID 3117694]
- inhibition of cytokine-inducible shedding of CXCL16 ([1]; TNF/IFN stimulation 24 h): inhibited cytokine-inducible
- inhibition of constitutive shedding of CXCL16 ([1]; unstimulated): not the constitutive shedding
- inhibition of neutrophil migration [2]: inhibition of migration to random migration levels
- effect on wound healing (MDA-MB-231 cells): significantly decreased wound healing
- effect on wound healing (A549 cells): significantly decreased wound healing
